PMC5562305, “Impact of novel palmitoylated prolactin-releasing peptide analogs on metabolic changes in mice with diet-induced obesity” (PLoS ONE, 2017)
Starred links: 1 amine or outer side, 2 acyl side, 3 side chain; linkers in the order of their positions; H or OH if unused. Residues, ends and D or L forms follow the SMILES beside them. Groups on a side chain read outwards from the residue. *: point of attachment. TTDA(Palmitoyl) = CCCCCCCCCCCCCCCC(=O)NCCCOCCOCCOCCCN*; Suc = O=C(CCC(=O)[*:2])[*:1]

Tested on: urinary metabolites
Test: NMR-based metabolomics of urine of DIO mice
Assay type: in vivo, C57BL/6 mice
Parameters: key to DMA, Mean / DMG, Mean / MA, Mean / TMA, Mean / acetate, Mean / allantoin, Mean / carnitine, Mean / choline, Mean / cis-aconitate, Mean / creatine+creatinine, Mean / creatine, Mean / creatinine, Mean / ethanolamine, Mean / formate, Mean / galactose, Mean / glucose, Mean / glycine, Mean / lactate, Mean / succinate, Mean / vinylacetylglycine, Mean: TSA-normalized intensity of the metabolite's representative NMR signal
Conditions: urine of DIO mice, NMR metabolomics
Protocol: Urine samples for NMR-based metabolomics were collected prior to the start of the interventions and at the end of the experiment. For overnight urine collection (from 5 pm to 8 am), the mice were housed in individual metabolic cages (Tecniplast, Buguggiate, Italy) without access to food. Samples were collected with the addition of NaN3 and stored at -80°C until NMR analysis.
The urine samples were thawed at room temperature and centrifuged at 13 684 x g for 5 min prior to the NMR experiments. A 200-μl aliquot of supernatant was diluted with 340 μl of H2O mixed with 60 μl of phosphate buffer (1.5 M KH2PO4 in D2O containing 2 mM NaN3 and 0.1% trimethylsilyl propionic acid (TSP), pH 7.4) and transferred to a 5-mm NMR tube. The NMR data were acquired with a 600 MHz Bruker Avance III spectrometer (Bruker BioSpin, Rheinstetten, Germany) equipped with a 5-mm TCI cryogenic probe head. All of the experiments were performed at 300 K. Automatic tuning, matching, shimming and adjusting of the 90° pulse length were performed for each sample.
As mouse urine naturally contains urinary proteins, the NMR spectra were acquired using a Carr-Purcell-Meiboom-Gill (CPMG) pulse sequence with water presaturation (Bruker pulse sequence cpmgpr1d) to eliminate the strong protein background. […] For better metabolite identification, a short J-resolved experiment with presaturation (NS = 2, SW = 16 ppm, TD = 8k, number of increments = 40, SW = 78.125 Hz in the indirect dimension, and relaxation delay = 2 s) was executed for all samples. Additional two-dimensional ^1H-^1H correlation spectroscopy (COSY) and ^1H-^13C heteronuclear multiple-quantum correlation (HMQC) experiments (Bruker pulse sequences cosygpprqf and hmqcphpr) were performed for selected samples.
The acquired data were processed using Topspin 3.2 software (Bruker BioSpin, Rheinstetten, Germany). Line broadening of 0.3 Hz was applied on free induction decays (FIDs) prior to Fourier transformation. The spectra were automatically phased, baseline corrected and referenced to the signal of TSP (0.00 ppm).
The assignment of individual metabolites was achieved by comparing the proton spectra with the spectra of pure metabolites using Chenomx NMR Suite 7.6 (Chenomx Inc., Edmonton, AB, Canada), the HMDB database and previously published metabolomic data. The identification of metabolites was supported through J-resolved and COSY experiments and, if possible, confirmed using carbon chemical shifts extracted from the HMQC spectra.
For quantitation of individual metabolites, the CPMG spectra were uniformly binned in the range of 0.10–10.00 ppm to 0.01-ppm intervals using AMIX software (Bruker BioSpin, Rheinstetten, Germany). This procedure reduced the dimensionality of the data, eliminated chemical shift variations and thus simplified the reproducible automatic quantification. Regions corresponding to water (4.60–4.90 ppm) and urea (5.60–6.00 ppm) were removed prior to analysis. As the dilutions of the original urine samples differed (due to the differences in water intake during urine collection), all of the spectra were normalized to the total spectral area (TSA). For each identified metabolite, one representative signal was chosen and then quantified as the sum of appropriate adjacent 0.01-ppm bins to cover the whole signal width. The metabolite concentration was expressed as the TSA-normalized intensity of the respective signal. For selection of an appropriate statistical method (parametric or non-parametric) the Lilliefors test of normality was performed. […] Metabolite alterations with a P < 0.05 were considered statistically significant. Statistical analysis was performed using Matlab software (“MATLAB version 8.6 (R2015b). Natick, Massachusetts: The MathWorks Inc., 2015.,” n.d.). […]

[1] = difference of analog mean vs saline mean

CCCCCCCCCCCCCCCC(=O)NCCCOCCOCCOCCCNC(=O)CCC(=O)NCCCC[C@H](NC(=O)[C@@H](NC(=O)[C@H](CCC(=O)O)NC(=O)[C@H](CCSC)NC(=O)[C@H](CO)NC(=O)[C@H](Cc1c[nH]cn1)NC(=O)[C@H](CCCNC(=N)N)NC(=O)[C@H](Cc1c[nH]cn1)NC(=O)[C@@H](NC(=O)[C@H](CCCNC(=N)N)NC(=O)[C@@H](N)CO)[C@@H](C)O)[C@@H](C)CC)C(=O)N[C@H](C(=O)N1CCC[C@H]1C(=O)N[C@@H](CC(=O)O)C(=O)N[C@H](C(=O)N[C@@H](CC(N)=O)C(=O)N1CCC[C@H]1C(=O)N[C@@H](C)C(=O)N[C@@H](Cc1c[nH]c2ccccc12)C(=O)N[C@@H](Cc1ccc(O)cc1)C(=O)N[C@@H](C)C(=O)N[C@@H](CO)C(=O)N[C@@H](CCCNC(=N)N)C(=O)NCC(=O)N[C@H](C(=O)N[C@@H](CCCNC(=N)N)C(=O)N1CCC[C@H]1C(=O)N[C@H](C(=O)NCC(=O)N[C@@H](CCCNC(=N)N)C(=O)N[C@@H](Cc1ccccc1)C(N)=O)C(C)C)[C@@H](C)CC)[C@@H](C)CC)[C@@H](C)O [analog 2] (H-SRTHRHSMEIK([Suc-TTDA(Palmitoyl)])TPDINPAWYASRGIRPVGRF-NH2; N-terminus assumed)
creatine, Saline/analog % [1]: -0.033% | creatinine, Saline/analog % [1]: 0.035% | ethanolamine, Saline/analog % [1]: -0.025% | formate, Saline/analog % [1]: 0.032% | fumarate, Saline/analog % [1]: -0.055% | galactose, Saline/analog % [1]: 0.041% | glucose, Saline/analog % [1]: -0.039% | glycine, Saline/analog % [1]: 0.016% | hexanoylglycine + acids (0.88 ppm), Saline/analog % [1]: 0.157% | hippurate (7.55 ppm), Saline/analog % [1]: 0.047% | hippurate (7.64 ppm), Saline/analog % [1]: 0.039% | hippurate (7.84 ppm), Saline/analog % [1]: 0.035% | lactate, Saline/analog % [1]: 0.156% | multiplet acids (1.6 ppm), Saline/analog % [1]: 0.157% | putrescin, Saline/analog % [1]: -0.042% | succinate, Saline/analog % [1]: 0.163% | taurine (3.27 ppm), Saline/analog % [1]: -0.196% | taurine (3.43 ppm), Saline/analog % [1]: -0.239% | trigonelline (8.84 ppm), Saline/analog % [1]: -0.008% | trigonelline (9.13 ppm), Saline/analog % [1]: -0.024% | vinylacetylglycine, Saline/analog % [1]: 0.163% | 2-OG (2.45 ppm), Mean (group mean): 11.956 | 2-OG (3.01 ppm), Mean (group mean): 10.103 | 2-PY (8.33 ppm), Mean (group mean): 0.992 | 3-indoxylsulfate (7.51 ppm), Mean (group mean): 1.459 | 3-indoxylsulfate (7.71 ppm), Mean (group mean): 0.842 | 4-PY (7.97 ppm), Mean (group mean): 1.710 | 4-PY (8.55 ppm), Mean (group mean): 0.484 | DMA, Mean (group mean): 5.145 | DMG, Mean (group mean): 1.928 | MA, Mean (group mean): 2.920 | MNA (8.90 ppm), Mean (group mean): 0.407 | MNA (8.97 ppm), Mean (group mean): 0.391 | MNA (9.265 ppm), Mean (group mean): 0.413 | MNA-Nox (7.75 ppm), Mean (group mean): 0.969 | MNA-Nox (8.13 ppm), Mean (group mean): 0.725 | MNA-Nox (8.49 ppm), Mean (group mean): 0.458 | MNA-Nox (8.75 ppm), Mean (group mean): 0.434 | N-carbamoylalanine (2.38 ppm), Mean (group mean): 10.919 | N-carbamoylalanine (3.31 ppm), Mean (group mean): 9.060 | N-isovalerylglycine + oxovalerate (0.92 ppm), Mean (group mean): 15.384 | TMA, Mean (group mean): 10.220 | acetate, Mean (group mean): 4.384 | allantoin, Mean (group mean): 21.272 | carnitine, Mean (group mean): 6.113 | choline, Mean (group mean): 2.053 | cis-aconitate, Mean (group mean): 9.014 | citrate (2.55 ppm), Mean (group mean): 31.737 | citrate (2.69 ppm), Mean (group mean): 28.801 | creatine+creatinine, Mean (group mean): 23.782 | creatine, Mean (group mean): 6.742 | creatinine, Mean (group mean): 11.494 | ethanolamine, Mean (group mean): 7.749 | formate, Mean (group mean): 0.205 | fumarate, Mean (group mean): 0.167 | galactose, Mean (group mean): 0.806 | glucose, Mean (group mean): 3.486 | glycine, Mean (group mean): 6.185 | hexanoylglycine + acids (0.88 ppm), Mean (group mean): 15.251 | hippurate (7.55 ppm), Mean (group mean): 4.857 | hippurate (7.64 ppm), Mean (group mean): 2.465 | hippurate (7.84 ppm), Mean (group mean): 5.092 | lactate, Mean (group mean): 7.122 | multiplet acids (1.6 ppm), Mean (group mean): 12.357 | putrescin, Mean (group mean): 8.544 | succinate, Mean (group mean): 12.532 | taurine (3.27 ppm), Mean (group mean): 20.714 | taurine (3.43 ppm), Mean (group mean): 17.197 | trigonelline (8.84 ppm), Mean (group mean): 0.310 | trigonelline (9.13 ppm), Mean (group mean): 0.125 | vinylacetylglycine, Mean (group mean): 3.494
